In PubChem BioAssay (NCI):
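48-hour exposure; five concentrations; linearly interpolated endpoints. GI50 is the concentration that inhibits growth by half. TGI: concentration producing complete growth inhibition.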

Experiments:
Test in all cases: DTP human tumour cell line panel, 48 h
[1] = tested on: SF-268 CNS
[2] = tested on: PC-3 prostate
[3] = tested on: CAKI-1 renal
[4] = tested on: MOLT-4 leukemia
[5] = tested on: SK-MEL-5 melanoma
[6] = tested on: HOP-92 NSCLC
[7] = tested on: NCI-H522 lung
[8] = tested on: SK-OV-3 ovarian
[9] = tested on: MALME-3M melanoma
[10] = tested on: T-47D breast

| Structure (SMILES) | TGI [1] [µM] | TGI [2] [µM] | TGI [3] [µM] | TGI [4] [µM] | TGI [5] [µM] | TGI [6] [µM] | TGI [7] [µM] | TGI [8] [µM] | TGI [9] [µM] | GI50 [1] [nM] | GI50 [2] [nM] | GI50 [3] [nM] | GI50 [5] [nM] | GI50 [6] [nM] | GI50 [10] [nM] | TGI [10] [µM] | GI50 [7] [nM] |
| --- | --- | --- | --- | --- | --- | --- | --- | --- | --- | --- | --- | --- | --- | --- | --- | --- | --- |
| CC[C@H]1C=CCC[C@@]2(C[C@@H]3CC[C@H]4[C@@H](C(=O)OCCCCCCCCCCCCCCCC(=O)N(CCCN)C[C@@H](O)CCN)[C@@]5(CCC[C@@H](C)O5)NC(=[N+]34)N2)O1 | 3.45 | 3.1 | > 10 | 2.84 | 2.87 | 4.1 | 3.07 | 3.19 | 3.24 | – | – | – | – | – | – | – | – |
| Nc1nc(N)c2cc(NCc3ccc(Cl)c(Cl)c3)ccc2n1 | 3.12 | 1.96 | 2.71 | – | 2.83 | 1.75 | 2.77 | – | – | 1580 | 623 | 1370 | 1500 | 348 | 1720 | 3.28 | 1310 |
| N#Cc1c(-c2ccccc2)c(N=Nc2ccc(Cl)cc2)c(=O)n2c1[nH]c1ccccc12 | > 100 | > 100 | > 100 | – | > 100 | – | > 100 | > 100 | > 100 | – | – | – | – | – | – | > 100 | – |
| CN(C)C(=O)OC(Cn1cncn1)(Cn1cncn1)c1ccc(Cl)cc1Cl | > 100 | > 100 | > 100 | > 100 | > 100 | > 100 | > 100 | > 100 | – | – | – | – | – | – | – | > 100 | – |
| COC(C)(C)C1(O)CCC(C)CC1=O (stereo not drawn) | > 100 | > 100 | > 100 | > 100 | > 100 | > 100 | > 100 | > 100 | > 100 | – | – | – | – | – | – | – | – |
| C=CCO[C@]1(CC=C)C(=O)C(=O)OC1C1COC(C)(C)O1 (stereo partly drawn) | > 100 | > 100 | 41.9 | 93.8 | 97.6 | 41.3 | 43.6 | – | 32.3 | – | – | – | – | – | – | > 100 | – |
| COC(=O)[C@H](Cc1c[nH]c2ccccc12)NC(=O)c1ccc(CNC(=O)/C=C/c2cccc(Oc3ccccc3)c2)cc1 | > 100 | > 100 | > 100 | > 100 | > 100 | > 100 | – | > 100 | > 100 | – | – | – | – | – | – | > 100 | – |
| C/C=C/C1OC(O)(C(C)C(O)[C@H](C)C2OC(=O)/C(OC)=C/C(C)=C/[C@@H](C)[C@@H](O)[C@@H](C)C(O)C(C)C/C(C)=C/C=C/C2OC)C[C@@H](OC2CC(O)C(OC(N)=O)C(C)O2)C1C (stereo partly drawn) | 10.3 | 0.625 | 13.9 | < 0.01 | < 0.01 | < 0.01 | < 0.01 | > 43.4 | 0.801 | – | – | – | – | – | – | – | – |
| O=C(NCc1cccc2ccccc12)N/N=C\c1ccc(Cl)cc1 | > 100 | > 100 | > 100 | > 100 | > 100 | > 100 | > 100 | – | > 100 | – | – | – | – | – | – | > 100 | – |
| Cc1ccc2oc(=O)c(C(=O)Nc3nc(C45CC6CC(CC(C6)C4)C5)cs3)cc2c1 | > 100 | > 100 | > 100 | > 100 | > 100 | > 100 | > 100 | – | > 100 | – | – | – | – | – | – | – | – |
| O=C(N/N=C(/COc1ccc([N+](=O)[O-])cc1)N=Cc1ccncc1)c1ccncc1 | > 100 | > 100 | > 100 | > 100 | – | – | > 100 | > 100 | > 100 | – | – | – | – | – | – | > 100 | – |
| COc1cc2c(cc1OC)C1(COc3cc(O)c(O)c(O)c3C1=O)C2 (stereo not drawn) | > 50 | > 50 | > 50 | > 50 | > 50 | – | > 50 | > 50 | > 50 | – | – | – | – | – | – | > 50 | – |
| CC(C)=CCC/C(C)=C/CC/C(C)=C/CC/C(=C/CC/C(C)=C\CC/C(C)=C/CC/C(C)=C/CC/C(C)=C/Cc1cc(O)ccc1O)CO | 9.17 | 15.5 | 4.82 | > 59.5 | 15.9 | 31.4 | 6.26 | 40.7 | 6.37 | – | – | – | – | – | – | – | – |
| CN(/N=C/c1ccnc2ccccc12)c1ccc(Cl)cc1[N+](=O)[O-] | > 100 | > 100 | > 100 | > 100 | > 100 | > 100 | > 100 | > 100 | > 100 | – | – | – | – | – | – | – | – |
| CCOC(=O)c1sc2[n+](c1C)C(=O)/C(=C/c1ccc([N+](=O)[O-])cc1)S2 | 47.3 | 57.4 | 37.7 | 53.5 | 72.1 | > 100 | – | 64.6 | – | – | – | – | – | – | – | 77.2 | – |
| CCOC(=O)CC1(c2cccc3ccccc23)OC(=O)c2ccccc21 (stereo not drawn) | > 100 | – | > 100 | 82.4 | 63.8 | – | 79.8 | > 100 | 96.2 | – | – | – | – | – | – | – | – |
| CC1=NN(c2nc(N)nc(CC#N)n2)C(C)(C)C1 | > 100 | > 100 | > 100 | > 100 | > 100 | > 100 | – | > 100 | – | – | – | – | – | – | – | > 100 | – |
| O=CC12C3CCC1C2C(=O)C3 (stereo not drawn) | > 100 | > 100 | > 100 | > 100 | > 100 | > 100 | > 100 | > 100 | > 100 | – | – | – | – | – | – | – | – |
| CC1(C)C2CC(=O)C1(C)C(OCc1ccccc1)C2 (stereo not drawn) | > 100 | > 100 | > 100 | 46.6 | > 100 | – | 52.5 | > 100 | > 100 | – | – | – | – | – | – | > 100 | – |
| C[N+]1(CCCl)CC[N+](C)(CCCl)CC1 (stereo not drawn) | > 100 | > 100 | > 100 | > 100 | > 100 | – | – | > 100 | > 100 | – | – | – | – | – | – | > 100 | – |
| C=C1C(=O)O[C@H]2[C@@H](O)[C@H](C)CCC[C@]3(C)O[C@H]3CC[C@@]3(C)O[C@@H]3C[C@@H]12 | 14.9 | 14.5 | 13 | 7.15 | 10.5 | – | 2.85 | 25 | – | – | – | – | – | – | – | 19.9 | – |
| Cc1ccc2nc(-c3ccc(N4C(=O)C(Cl)C4c4ccc(Cl)cc4)cc3)sc2c1 (stereo not drawn) | 68 | 36.8 | 35.6 | – | 28.2 | 18.9 | – | 28 | > 100 | – | – | – | – | – | – | > 100 | – |
